Test results taken from PubChem BioAssay (NCI).
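Test compounds were applied to cells in 96-well plates for 48 hours at 5 doses. GI50 is the concentration that inhibits growth by half. At the TGI there is no net growth.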

Columns and labels:
Experiment in all cases: NCI-60 cell line screen, 48 h
CAKI-1 renal = tested on: CAKI-1 renal
A498 renal = tested on: A498 renal
HCT-116 colon = tested on: HCT-116 colon
SF-539 CNS = tested on: SF-539 CNS
OVCAR-5 ovarian = tested on: OVCAR-5 ovarian
ACHN renal = tested on: ACHN renal
SN12C renal = tested on: SN12C renal
OVCAR-4 ovarian = tested on: OVCAR-4 ovarian
SR leukemia = tested on: SR leukemia
NCI-H460 lung = tested on: NCI-H460 lung

| Structure (SMILES) | GI50 (CAKI-1 renal) | TGI (CAKI-1 renal) | GI50 (A498 renal) | TGI (A498 renal) | GI50 (HCT-116 colon) | TGI (HCT-116 colon) | GI50 (SF-539 CNS) | TGI (SF-539 CNS) | GI50 (OVCAR-5 ovarian) | TGI (OVCAR-5 ovarian) | GI50 (ACHN renal) | TGI (ACHN renal) | GI50 (SN12C renal) | TGI (SN12C renal) | GI50 (OVCAR-4 ovarian) | TGI (OVCAR-4 ovarian) | GI50 (SR leukemia) | TGI (SR leukemia) | GI50 (NCI-H460 lung) | TGI (NCI-H460 lung) |
| --- | --- | --- | --- | --- | --- | --- | --- | --- | --- | --- | --- | --- | --- | --- | --- | --- | --- | --- | --- | --- |
| Cc1cc(C)c(NC(=O)c2sc3nc4c(cc3c2N)C(=O)CCC4)c(C)c1 | 2.66 µM | > 100 µM | 3.4 µM | > 51.5 µM | 3.85 µM | > 100 µM | 2.59 µM | > 30.6 µM | 7.98 µM | > 100 µM | 6.11 µM | > 100 µM | 7.42 µM | > 100 µM | 6.89 µM | > 100 µM | 3 µM | > 55.3 µM | 1.56 µM | 21.2 µM |
| O=S(=O)(c1ccc(NC(=S)NC23CC4CC(CC(C4)C2)C3)cc1)N1CCCCC1 | 3.06 µM | > 100 µM | 2.04 µM | 7.79 µM | 3.34 µM | > 100 µM | 4.19 µM | > 100 µM | 3.53 µM | > 100 µM | 3.12 µM | > 100 µM | 3.23 µM | > 100 µM | 4.01 µM | > 100 µM | 2.69 µM | > 100 µM | 3.35 µM | > 100 µM |
| Nc1nc(Nc2cccnc2)sc1C(=O)c1ccccc1F | 1.94 µM | 6.86 µM | 2.59 µM | 7.02 µM | 2.51 µM | > 100 µM | 1.52 µM | 3.88 µM | 2.17 µM | 7.61 µM | 2.53 µM | > 100 µM | 3.02 µM | > 100 µM | 8.74 µM | 76.6 µM | 0.709 µM |  | 2.57 µM | 17.9 µM |
| O=C(CCc1nc(=S)[nH][nH]1)Nc1ccccc1Cl |  | > 100 µM |  | > 100 µM |  | > 100 µM |  | > 100 µM |  | > 100 µM |  | > 100 µM |  | > 100 µM |  | > 100 µM |  | > 100 µM |  | > 100 µM |
| Clc1cc(Cl)c2ns[s+]c2c1Cl |  | > 100 µM |  | > 100 µM |  | > 100 µM |  | > 100 µM |  | > 100 µM |  | > 100 µM |  | > 100 µM |  | > 100 µM |  | > 100 µM |  | > 100 µM |
| CC/C=C\C[C@H](O)C/C=C1/C(=O)C=C[C@@H]1C/C=C\CCCC(=O)OC | 3.11 µM | 12.7 µM | 4.91 µM | 14.4 µM | 0.572 µM | 2.92 µM | 2.75 µM | 7.33 µM | 2.7 µM | 6.69 µM | 2 µM | 4.27 µM | 2.55 µM | 10.2 µM | 3.48 µM | 16.2 µM | 0.403 µM | 6.18 µM | 3.26 µM | 11.2 µM |
